Experimental findings from patent publication US20260125686A1, “COMPOSITIONS AND METHODS FOR MODULATION OF CFTR” (Cystic Fibrosis Foundation, priority 2022, published 2026) are described below.

The data set has as its target Exon 22 truncated CFTR (Homo sapiens, UniProt P13569). Description: TECC-24 assay in 16HBEge-W1282X cells. It is filed as cell-based. On the set-up: contain the first 1239 amino acids of a WT CFTR; endogenous in cells. The note with it: for FSK+VX-770 AUC/min: in combination SA-08 10 μM. On the procedure:
Electrophysiology. Clonal lines were seeded at a density of 4.5×10^5 cells cm-2 onto HTS Transwell 24-well filter inserts pre-coated with human collagen type IV. Cells were grown as submerged cultures in MEM (Gibco, 11095) containing 10% FBS and 1% Pen/Strep, and incubated at 37° C. and 5% CO2. Cells were treated from both the basolateral and apical side with fresh medium containing either control (vehicle) or test article for the treatment time indicated in the figure legends. After a total of 7 days, 16HBE cells typically formed electrically tight epithelia with a transepithelial resistance (Rt) of 200-600 Ω·cm2 and CFTR-mediated Cl— equivalent current (Ieq) was determined as described below.
Prior to functional (Ieq) studies, MEM was replaced with fresh HEPES-buffered (pH 7.4) solutions (assay buffer). A driving force for chloride ions was established through application of a basolateral to apical chloride ion gradient (see buffer composition below). Cell plates were mounted onto an automated robotic assay platform and equilibrated at ˜36° C. for 90 min. After equilibration, transepithelial voltage (Vt) and resistance (Rt) were monitored at ˜5 min intervals using a 24-channel transepithelial current clamp amplifier (TECC-24, EP Design, Bertem, Belgium). Electrode potential differences for each pair of Ag/AgCl voltage electrodes were also monitored at 5 min intervals by taking voltage measurements from a control plate with matching buffer solutions and 16HBE cells that were left untreated. Ieq was calculated from values of Vt and Rt using Ohm's law after correcting for series resistance and (electrode) voltage offsets unrelated to Vt. Ieq traces are plotted as mean±SD (n=3). The first 4 data points reflect baseline Ieq currents prior to sequential stimulation of CFTR with forskolin (10 μM) and VX-770/ivacaftor (1 μM). The last six data points were recorded in the presence of CFTR inhibitor CFTRinh-172 (20 μM). Agonists/antagonists were pre-diluted to 10-fold concentrations in assay buffer and add-ed to either the basolateral (forskolin) or apical (forskolin, VX-770/ivacaftor, and CFTRinh-172) side of the membrane (assay plates only). CFTR-mediated changes in Ieq, (i.e., delta forskolin, delta VX-770, delta CFTRinh-172, or the area under the curve (AUC) between forskolin and CFTRinh-172 addition) are used as a measure of functional CFTR surface expression or treatment-related functional rescue of mutant CFTR.
Assay buffer: CFTR-mediated transepithelial currents were recorded using a Cl— concentration gradient. The basolateral solution contained (mM): 137 NaCl, 4 KCl, 1.8 CaCl2, 1 MgCl2, 10 HEPES and D-Glucose, adjusted to pH 7.4 with NaOH/HCl ([CI-] total: 146.6 mM). The apical solution was matched to the basolateral except for (mM): 137 Na-gluconate replaced 137 NaCl ([Cl—] total: 9.6 mM).
The function of Exon 22 truncated CFTR protein was assayed by the transepithelial chloride conductance assay (TECC-24 assay), as depicted in FIG. 15A and FIG. 15B. 16HBEge-W1282X cells were incubated in 0.02% DMSO (vehicle) or VX445/VX661 prior to the TECC assay. Characteristic CFTR responses to forskolin, potentiator (VX-770), and CFTR inhibition (Inh-172) were recorded in the presence and absence of various doses and combinations of ASO treatments. […] ASO treatment further induced a larger chloride channel conductance compared to no ASO treatment.
The function of various CFTR proteins in the cells can be assessed by comparing the area under curve (AUC) of the induced chloride conductance obtained in the electrophysiology assays. The AUC of various mutant cell lines (e.g., 16HBEge-W1282X cells), with or without treatment, can be normalized to the AUC obtained from cells expressing WT CFTR protein and expressed as either a percentage of WT CFTR (% WT CFTR) or a ratio to WT CFTR (variant/WT CFTR). […]

Chain of Exon 22 truncated CFTR (P13569 with tags, fused parts or gaps): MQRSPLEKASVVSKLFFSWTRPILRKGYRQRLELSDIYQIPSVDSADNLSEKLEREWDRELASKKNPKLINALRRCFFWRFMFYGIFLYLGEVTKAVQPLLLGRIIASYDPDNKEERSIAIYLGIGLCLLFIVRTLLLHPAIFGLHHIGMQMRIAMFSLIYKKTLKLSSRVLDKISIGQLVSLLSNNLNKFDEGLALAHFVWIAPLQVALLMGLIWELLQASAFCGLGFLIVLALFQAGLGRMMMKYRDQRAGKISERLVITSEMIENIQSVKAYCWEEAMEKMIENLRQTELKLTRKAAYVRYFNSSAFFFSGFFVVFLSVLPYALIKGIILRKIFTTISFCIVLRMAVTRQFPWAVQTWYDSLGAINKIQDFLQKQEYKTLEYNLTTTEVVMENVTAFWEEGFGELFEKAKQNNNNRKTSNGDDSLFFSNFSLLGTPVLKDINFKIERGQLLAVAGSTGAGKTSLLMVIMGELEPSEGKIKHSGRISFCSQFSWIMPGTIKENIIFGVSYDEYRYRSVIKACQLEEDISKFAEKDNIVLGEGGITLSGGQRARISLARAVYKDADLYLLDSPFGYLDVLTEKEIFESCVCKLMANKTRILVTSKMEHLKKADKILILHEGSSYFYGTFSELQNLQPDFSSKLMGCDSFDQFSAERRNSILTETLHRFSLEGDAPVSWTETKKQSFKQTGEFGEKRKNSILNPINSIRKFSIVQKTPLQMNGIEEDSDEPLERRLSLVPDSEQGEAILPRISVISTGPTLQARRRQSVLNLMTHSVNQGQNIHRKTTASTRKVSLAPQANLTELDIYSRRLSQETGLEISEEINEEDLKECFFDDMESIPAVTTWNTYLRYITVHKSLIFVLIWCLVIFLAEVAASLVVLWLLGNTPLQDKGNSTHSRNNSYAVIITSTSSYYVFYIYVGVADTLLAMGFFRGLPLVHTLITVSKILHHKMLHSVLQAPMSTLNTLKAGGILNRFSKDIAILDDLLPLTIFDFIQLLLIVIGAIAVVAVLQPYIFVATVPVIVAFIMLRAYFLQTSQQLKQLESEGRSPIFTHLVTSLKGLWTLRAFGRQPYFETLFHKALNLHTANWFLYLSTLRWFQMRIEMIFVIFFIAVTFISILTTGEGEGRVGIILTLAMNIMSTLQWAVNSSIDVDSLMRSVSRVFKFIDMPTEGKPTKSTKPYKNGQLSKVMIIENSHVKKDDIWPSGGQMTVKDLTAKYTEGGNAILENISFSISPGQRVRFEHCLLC

For “aaagcaagcagtgttcaaatct (antisense AAAGCAAGCAGTGTTCAAATCT; all 2'-MOE, all phosphorothioate, methylation of C not given here) [SD10, PS backbone, 2′-MOE]”, for the setting “10 μM SD10, with Trikafta”, the “chloride conductance AUC, of WT” value is “about 9%”. Besides, the “increase in AUC (of WT)” value (10 μM SD10, without Trikafta treatment) is reported as 2.9%. Besides, the “FSK+VX-770 AUC/min” value reads like this: ((+) VX-445/VX-661 (3/3 μM), SD-10 100 μM) 11.5+/−0.5 μA/cm^2; ((+) VX-445/VX-661 (3/3 μM), SD-10 printed '(μM)' / 10 μM) 10.4+/−1.2 μA/cm^2; ((−) VX-445/VX-661, SD-10 100 μM) 4.6+/−0.4 μA/cm^2; ((−) VX-445/VX-661, SD-10 printed '(μM)' / 10 μM) 5.5+/−0.7 μA/cm^2.
Regarding “ataaggtaaaagtgatgggatc (antisense ATAAGGTAAAAGTGATGGGATC; all 2'-MOE, all phosphorothioate, methylation of C not given here) [SA8, PS backbone, 2′-MOE]”, the “chloride conductance AUC, of WT” value by setting is: (0.1 μM SA08, with Trikafta) “about 3.1%”; (1 μM SA08, with Trikafta) roughly 4.9%; (2 μM SA08, with Trikafta) roughly 6.2%.
Regarding “elexacaftor/ivacaftor/tezacaftor [Trikafta]”, for the setting “Trikafta (3/3 μM VX-661/445 48 h, 3 μM VX-770), no ASO”, the “Ex22 truncated CFTR function, of WT CFTR function” value is reported as roughly 3%.
